Measured values taken from patent publication US9181279B2, “Cyclic amine derivatives as EP4 receptor antagonists” (ROTTAPHARM BIOTECH S.R.L., priority 2011, dated 2015).
Each block holds one compound with its values, some of them ahead of it.

Columns and labels:
[1] = Pharmacokinetics in male Han Wistar rats, intravenous and oral; type: in vivo; conditions: male Han Wistar rat
Method: The pharmacokinetics of compounds E7, E17 and E18, were studied in male Han Wistar rats. The rats were treated intravenously and orally (n=3 for each dose route) with compounds formulated as solutions. The rats were fitted with a jugular cannula for serial sampling. A full profile was acquired from each rat. Plasma extracts were quantitatively analyzed using a specific and sensitive LC-MS/MS bioanalytical method. Inter-individual variations between the three rats in each group were limited (CV for pharmacokinetic parameters was below 50%).

human EP4 receptor = human EP4 receptor (Homo sapiens (Human), UniProt P35408); assay: [3H]-Prostaglandin E2 membrane binding assay toward hEP4 receptors; conditions: [3H]-PGE2 1 nM, membranes of human EP4/HEK293 transfectant; read-out: Binding pKi (converted)
Method: Human embryonic kidney cells (HEK-293) were stably transfected with expression vector for human EP4 receptor in according to the method described in FuGENE®6 Transfection Reagent's manual (Roche Applied Science®). […] Incubation was conducted in a polypropylene 96 multiwell for 90 min (EP4) or 60 min (EP2) at room temperature prior to separation of the bound and free radioligand by vacuum manifold rapid filtration on glass fiber filters (Unifilter GFB96, PerkinElmer Inc) pre-soaked in 0.3% polyethyleneimine.

human EP4 receptor, sequence (P35408 whole entry): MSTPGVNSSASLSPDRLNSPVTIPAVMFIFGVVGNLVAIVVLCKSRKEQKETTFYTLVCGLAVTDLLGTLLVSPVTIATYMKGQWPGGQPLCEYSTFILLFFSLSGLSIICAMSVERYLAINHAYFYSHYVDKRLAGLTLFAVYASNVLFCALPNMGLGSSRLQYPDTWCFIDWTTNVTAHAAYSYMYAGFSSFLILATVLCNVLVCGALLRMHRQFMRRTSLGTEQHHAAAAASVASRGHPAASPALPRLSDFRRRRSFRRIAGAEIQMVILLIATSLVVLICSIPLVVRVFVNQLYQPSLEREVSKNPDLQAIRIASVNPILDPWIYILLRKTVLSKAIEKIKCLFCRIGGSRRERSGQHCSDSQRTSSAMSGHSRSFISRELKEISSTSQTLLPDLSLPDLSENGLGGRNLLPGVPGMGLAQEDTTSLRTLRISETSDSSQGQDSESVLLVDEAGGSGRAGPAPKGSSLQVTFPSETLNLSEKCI

F ([1]; po, 1 mg/kg): 85%
Tlast ([1]; po, 1 mg/kg): 24 h
Compound: O=C(O)c1ccc(C2(NC(=O)[C@H]3CC(F)(F)CCN3Cc3ccc(C(F)(F)F)cc3)CC2)cc1 [Example E17, (R)-4-(1-(4,4-difluoro-1-(4-(trifluoromethyl)benzyl)piperidine-2-carboxamido)cyclopropyl)benzoic acid]

Compound: C[C@H](NC(=O)[C@H]1CCCN1Cc1ccc(C(F)(F)F)cc1)c1ccc(C(=O)O)cc1 [Example E27, lithium 4-((S)-1-((R)-1-(4-(trifluoromethyl)benzyl)pyrrolidine-2-carboxamido)ethyl)benzoate]
Ki (human EP4 receptor): 0.0501 µM

Tlast ([1]; iv, 1 mg/kg): 24 h
F ([1]; po, 1 mg/kg): 93%
Tlast ([1]; po, 1 mg/kg): 24 h
Compound: O=C(O)c1ccc(C2(NC(=O)C3CC(F)(F)CCN3Cc3ccc(C(F)(F)F)cc3)CC2)cc1 (single isomer, unassigned) [Example E18, 4-(1-(4,4-difluoro-1-(4-(trifluoromethyl)benzyl)piperidine-2-carboxamido)cyclopropyl)benzoic acid]

Compound: O=C(O)c1ccc(C2(NC(=O)C3CC4(CCN3Cc3ccc(C(F)(F)F)cc3)CC4)CC2)cc1 (single isomer, unassigned) [Example E7, 4-(1-(6-(4-(trifluoromethyl)benzyl)-6-azaspiro[2.5]octane-5-carboxamido)cyclopropyl)benzoic acid]
AUC 0-t ([1]; iv, 5 mg/kg): 29.2 µg·h/mL
AUC inf ([1]; iv, 5 mg/kg): 31.8 µg·h/mL
CLp ([1]; iv, 5 mg/kg): 43 mL/h
Tlast ([1]; iv, 5 mg/kg): 24 h
Vss ([1]; iv, 5 mg/kg): 395 mL
t½ ([1]; iv, 5 mg/kg): 7.4 h
AUC 0-t ([1]; po, 5 mg/kg): 22.9 µg·h/mL
AUC inf ([1]; po, 5 mg/kg): 24.9 µg·h/mL
Cmax ([1]; po, 5 mg/kg): 5.33 µg/mL
F ([1]; po, 5 mg/kg): 78%
Tlast ([1]; po, 5 mg/kg): 24 h
Tmax ([1]; po, 5 mg/kg): 0.5 h
t½ ([1]; po, 5 mg/kg): 6.7 h

Compound: O=C(O)c1ccc(C2(NC(=O)[C@H]3CCCCN3Cc3ccc(C(F)(F)F)cc3)CC2)cc1 [Example E4, lithium (R)-4-(1-(1-(4-(trifluoromethyl)benzyl)piperidine-2-carboxamido)cyclopropyl)benzoate]
Ki (human EP4 receptor): 0.0398 µM
